Measurements: patent US9243002B2, “Tetracyclic heterocycle compounds and methods of use thereof for the treatment of hepatitis C” (priority 2013, dated 2016)
Like-named read-outs stand apart in the source and are kept apart here.

Legend:
HCV genotype 1a replicon = test: HCV replicon assay, genotype 1a (cell ELISA for NS3/4A); format: cell-based, hepatitis C virus
Protocol: (§1) Measurement of inhibition by compounds was performed using the HCV replicon system. Several different replicons encoding different HCV genotypes or mutations were used. In addition, potency measurements were made using different formats of the replicon assay, including different ways of measurements and different plating formats. See Jan M. Vrolijk et al., A replicons-based bioassay for the measurement of interferons in patients with chronic hepatitis C, 110 J. VIROLOGICAL METHODS 201 (2003); Steven S. Carroll et al., Inhibition of Hepatitis C Virus RNA Replication by 2′-Modified Nucleoside Analogs, 278 (14) J. BIOLOGICAL CHEMISTRY 11979 (2003). However, the underlying principles are common to all of these determinations, and are outlined below.
(§2) Stable neomycin phosphotransferase encoding replicons-harboring cell lines were used, so all cell lines were maintained under G418 selection prior to the assay. Potency was deteremined using a cell ELISA assay with an antibody to the replicons encoded NS3/4a protease. See Caterina Trozzi et al., In Vitro Selection and Characterization of Hepatitis C Virus Serine Protease Variants Resistant to an Active-Site Peptide Inhibitor, 77 (6) J. Virol. 3669 (2003). To initiate an assay, replicon cells were plated in the presence of a dilution series of test compound in the absence of G418. Typically, the assays were performed in a 96-well plate formate for manual operation, or a 384-well plate format for automated assay. Replicon cells and compound were incubated for 96 hours. At the end of the assay, cells were washed free of media and compound, and the cells were then lysed. RNA was quantified indirectly through detection of replicon-encoded NS3/4A protein levels, through an ELISA-based assay with an antibody specific for NS3/4A. IC50 determinations were calculated as a percentage of a DMSO control by fitting the data to a four-parameter fit function and the data obtained for genotypes 1a and 1b using this method is provided in the table below.

HCV genotype 1b replicon = test: HCV replicon assay, genotype 1b (cell ELISA for NS3/4A); format: cell-based, hepatitis C virus
Protocol: as §1, §2

[1] = read-out: 1a IC50, genotype 1a replicon cells, 96 hours incubation, NS3/4A ELISA
[2] = Hepatitis C virus, 96 h, read-out: 1b IC50 (nM), genotype 1b replicon cells, 96 hours incubation, NS3/4A ELISA
[3] = read-out: 1b IC50, genotype 1b replicon cells, 96 hours incubation, NS3/4A ELISA
[4] = genotype 1a replicon cells, 96 hours incubation, NS3/4A ELISA, read-out: 1a IC50
[5] = genotype 1b replicon cells, 96 hours incubation, NS3/4A ELISA, read-out: 1b IC50
[6] = Hepatitis C virus, 96 h, read-out: 1a IC50 (nM), genotype 1a replicon cells, 96 hours incubation, NS3/4A ELISA

SMILES | IC50 (HCV genotype 1b replicon; [2]) [nM] | IC50 (HCV genotype 1a replicon; [6]) [nM] | also measured
CNC(=O)c1c(-c2ccc(F)cc2)oc2cc(N(C)S(C)(=O)=O)c(-c3cc4c(cn3)CC(C)n3c-4cc4c(F)cccc43)cc12 (single isomer, unassigned) [Example 41, (R or S)-5-(11-fluoro-6-methyl-5,6-dihydroindolo[2,1-a][2,6]naphthyridin-2-yl)-2-(4-fluorophenyl)-N-methyl-6-(N-methylmethylsulfonamido)benzofuran-3-carboxamide] | 6.33 |  | IC50 (HCV genotype 1a replicon; [1]): 19.3 nM
CNC(=O)c1c(-c2ccc(F)cc2)oc2cc(N(C)S(C)(=O)=O)c(-c3cc4c(cn3)CC(C)n3c-4cc4c(F)cccc43)cc12 (single isomer, unassigned) [Example 42, (S or R)-5-(11-fluoro-6-methyl-5,6-dihydroindolo[2,1-a][2,6]naphthyridin-2-yl)-2-(4-fluorophenyl)-N-methyl-6-(N-methylmethylsulfonamido)benzofuran-3-carboxamide] |  |  | IC50 (HCV genotype 1a replicon; [1]): 3.1 nM; IC50 (HCV genotype 1b replicon; [3]): 5.47 nM
CNC(=O)c1c(-c2ccc(F)cc2F)oc2cc(N(C)S(C)(=O)=O)c(-c3ccc4c(n3)-c3cc5c(F)cccc5n3C(CO)C4)cc12 (single isomer, unassigned) [Example 50, (R or S)-2-(2,4-difluorophenyl)-5-(1.1-fluoro-6-(hydroxymethyl)-5,6-dihydroindolo[1,2-h][1,7]naphthyridin-2-yl)-N-methyl-6-(N-methylmethylsulfonamido)benzofuran-3-carboxamide] |  |  | IC50 (HCV genotype 1a replicon; [4]): 1.15 nM; IC50 (HCV genotype 1b replicon; [5]): 3.36 nM
CNC(=O)c1c(-c2ccc(F)cc2F)oc2cc(N(C)S(C)(=O)=O)c(-c3ccc4c(n3)-c3cc5c(F)cccc5n3C(CO)C4)cc12 (single isomer, unassigned) [Example 51, (S or R)-2-(2,4-difluorophenyl)-5-(11-fluoro-6-(hydroxymethyl)-5,6-dihydroindolo[1,2-h][1,7]naphthyridin-2-yl)-N-methyl-6-(N-methylmethylsulfonamido)benzofuran-3-carboxamide] | 3.42 | 4.49 | 
CNC(=O)c1c(-c2ccc(F)cc2)oc2cc(N(C)S(C)(=O)=O)c(-c3ccc4c(n3)-c3cc5c(F)cccc5n3C(CS(C)(=O)=O)C4)cc12 (single isomer, unassigned) [Example 56, (R or S)-5-(11-fluoro-6-((methylsulfonyl)methyl)-5,6-dihydroindolo[1,2-h][1,7]naphthyridin-2-yl)-2-(4-fluorophenyl)-N-methyl-6-(N-methylmethylsulfonamido)benzofuran-3-carboxamide] | 2 |  | IC50 (HCV genotype 1a replicon; [1]): 3.4 nM
CNC(=O)c1c(-c2ccc(F)cc2)oc2cc(N(C)S(C)(=O)=O)c(-c3ccc4c(n3)-c3cc5c(F)cccc5n3C(CS(C)(=O)=O)C4)cc12 (single isomer, unassigned) [Example 57, (S or R)-5-(11-fluoro-6-((methylsulfonyl)methyl)-5,6-dihydroindolo[1,2-h][1,7]naphthyridin-2-yl)-2-(4-fluorophenyl)-N-methyl-6-(N-methylmethylsulfonamido)benzofuran-3-carboxamide] |  |  | IC50 (HCV genotype 1a replicon; [1]): 8.16 nM; IC50 (HCV genotype 1b replicon; [3]): 3.39 nM
CNC(=O)c1c(-c2ccc(F)cc2)oc2cc(N(C)S(C)(=O)=O)c(-c3cc4c(cn3)C(C)Cn3c-4cc4c(F)cccc43)cc12 (single isomer, unassigned) [Example 60, (R or S)-5-(11-fluoro-5-methyl-5,6-dihydroindolo[2,1-a][2,6]naphthyridin-2-yl)-2-(4-fluorophenyl)-N-methyl-6-(N-methylmethylsulfonamido)benzofuran-3-carboxamide] | 10.1 |  | IC50 (HCV genotype 1a replicon; [1]): 5 nM
CNC(=O)c1c(-c2ccc(F)cc2)oc2cc(N(C)S(C)(=O)=O)c(-c3cc4c(cn3)C(C)Cn3c-4cc4c(F)cccc43)cc12 (single isomer, unassigned) [Example 61, (S or R)-5-(11-fluoro-5-methyl-5,6-dihydroindolo[2,1-a][2,6]naphthyridin-2-yl)-2-(4-fluorophenyl)-N-methyl-6-(N-methylmethylsulfonamido)benzofuran-3-carboxamide] |  |  | IC50 (HCV genotype 1a replicon; [1]): 2.27 nM; IC50 (HCV genotype 1b replicon; [3]): 7.8 nM
CNC(=O)c1c(-c2ccc(C(F)(F)F)cc2)oc2cc(N(C)S(C)(=O)=O)c(-c3ccc4c(n3)-c3cc5c(F)cccc5n3CC4)cc12 [Example 1, 5-(11-fluoro-5,6-dihydroindolo[1,2-h][1,7]naphthyridin-2-yl)-N-methyl-6-(N-methylmethylsulfonamido)-2-(4-(trifluoromethyl)phenyl)benzofuran-3-carboxamide] |  |  | IC50 (HCV genotype 1a replicon; [4]): 3.78 nM; IC50 (HCV genotype 1b replicon; [5]): 4.67 nM
CNC(=O)c1c(-c2ccc(OC(F)F)nc2)oc2cc(N(C)S(C)(=O)=O)c(-c3ccc4c(n3)-c3cc5c(F)cccc5n3CC4)cc12 [Example 2] | 3.9 | 2.09 | 
CNC(=O)c1c(-c2ccc(C(F)F)nc2)oc2cc(N(C)S(C)(=O)=O)c(-c3ccc4c(n3)-c3cc5c(F)cccc5n3CC4)cc12 [Example 3] | 6.69 | 7.94 | 
CNC(=O)c1c(-c2ccc(OCC(F)(F)F)nc2)oc2cc(N(C)S(C)(=O)=O)c(-c3ccc4c(n3)-c3cc5c(F)cccc5n3CC4)cc12 [Example 4] | 7.3 | 6.99 | 
CNC(=O)c1c(-c2ccc(OC3CC3)nc2)oc2cc(N(C)S(C)(=O)=O)c(-c3ccc4c(n3)-c3cc5c(F)cccc5n3CC4)cc12 [Example 5] | 2.3 | 3.86 | 
CNC(=O)c1c(-c2ccc(C3CC3)nc2)oc2cc(N(C)S(C)(=O)=O)c(-c3ccc4c(n3)-c3cc5c(F)cccc5n3CC4)cc12 [Example 6] | 10.2 | 16.8 | 
CNC(=O)c1c(-c2ccc(C)nc2)oc2cc(N(C)S(C)(=O)=O)c(-c3ccc4c(n3)-c3cc5c(F)cccc5n3CC4)cc12 [Example 7] | 6.79 | 17.6 | 
CNC(=O)c1c(-c2cnc3c(c2)OCCO3)oc2cc(N(C)S(C)(=O)=O)c(-c3ccc4c(n3)-c3cc5c(F)cccc5n3CC4)cc12 [Example 8] | 122 | 580 | 
CCc1ccc(-c2oc3cc(N(C)S(C)(=O)=O)c(-c4ccc5c(n4)-c4cc6c(F)cccc6n4CC5)cc3c2C(=O)NC)cn1 [Example 9] | 31.2 | 38.2 | 
CNC(=O)c1c(-c2ccc(F)cc2C)oc2cc(N(C)S(C)(=O)=O)c(-c3ccc4c(n3)-c3cc5c(F)cccc5n3CC4)cc12 [Example 10] | 10.7 | 9.44 | 
CNC(=O)c1c(-c2ccc(C(C)C)nc2)oc2cc(N(C)S(C)(=O)=O)c(-c3ccc4c(n3)-c3cc5c(F)cccc5n3CC4)cc12 [Example 11] | 661 | 2120 | 
CNC(=O)c1c(-c2ccc(F)cc2Cl)oc2cc(N(C)S(C)(=O)=O)c(-c3ccc4c(n3)-c3cc5c(F)cccc5n3CC4)cc12 [Example 12] | 10.6 | 4.59 | 
CNC(=O)c1c(-c2ccc(F)cc2C#N)oc2cc(N(C)S(C)(=O)=O)c(-c3ccc4c(n3)-c3cc5c(F)cccc5n3CC4)cc12 [Example 13] | 16.5 | 17.3 | 
CNC(=O)c1c(-c2cnc(C)c(F)c2)oc2cc(N(C)S(C)(=O)=O)c(-c3ccc4c(n3)-c3cc5c(F)cccc5n3CC4)cc12 [Example 14] | 24.3 | 26.4 | 
CNC(=O)c1c(-c2ccc(F)nc2)oc2cc(N(C)S(C)(=O)=O)c(-c3ccc4c(n3)-c3cc5c(F)cccc5n3CC4)cc12 [Example 15] | 5.09 | 3.41 | 
CNC(=O)c1c(C2CC2)oc2cc(N(C)S(C)(=O)=O)c(-c3ccc4c(n3)-c3cc5c(F)cccc5n3CC4)cc12 [Example 16] | 14.6 | 27 | 
